Assay results taken from ChEMBL document CHEMBL1764954, “Activation of the G-protein-coupled receptor 119: a conformation-based hypothesis for understanding agonist response” (J Med Chem, 2011).
Values after ≈ are worked out from the molar mass of the structure shown. Each block holds one compound with its values, some of them ahead of it. Active and inactive are the calls of the source. The rule behind the calls is not given here.

Assays:
[1] = Solubility of the compound in gastric fluid at pH 1.2; assay type: physicochemical; settings: simulated gi fluid
Rattus norvegicus [2] = test: Increase in GLP1 level in overnight fasted Wistar rats at 5 and 50 mg/kg, po; assay type: functional, organism-based; design: dose 50 mg/kg
Rattus norvegicus [3] = test: Hypoglycemic activity in overnight fasted Wistar rats assessed as decrease in glucose AUC at 5 and 50 mg/kg, po by oral glucose tolerance test; assay type: functional, organism-based; design: dose 50 mg/kg
[4] = Aqueous solubility of the compound; assay type: physicochemical; settings: aqueous medium

solubility [1]: 8.6 mg/mL (≈ 20.1 mM)
Structure (SMILES): Cc1ncccc1Oc1ncnc(OC2C3COCC2CN(C(=O)OC(C)C)C3)c1C (stereo in doubt; 8) [listing 1 of 2 here]

Structure (SMILES): Cc1ncccc1Oc1ncnc(OC2C3COCC2CN(C(=O)OC(C)C)C3)c1C (stereo in doubt; 8) [listing 2 of 2 here]
Activity (Rattus norvegicus [2]): Active
Activity (Rattus norvegicus [3]): Active

solubility [4]: > 40 mg/mL
Structure (SMILES): Cc1ncccc1Oc1ncnc(OC2CCN(C(=O)OC(C)C)CC2)c1C

solubility [1]: > 66 mg/mL
Structure (SMILES): Cc1ncccc1Oc1ncnc(OC2C3COCC2CN(C(=O)OC(C)C)C3)c1C (stereo in doubt; 9)
